Test results from article PMC11345766, “Computational Design of Pore-Forming Peptides with Potent Antimicrobial and Anticancer Activities” (Journal of Medicinal Chemistry, 2024).
Values belong to the compound of their own block, whether it stands above or below them. Ends that are not written are not given here.

Key:
[1] = system: RPMI 8226; assay: cells; type: cell-based, human; settings: Homo sapiens, RPMI-8226; Myeloma; RPMI-1640 +10% FCS; 72 hours; read-out: Activity (in M), IC50
Description: (§1) The CellTiter-Glo luminescent cell viability assay examining the impact of peptides on 22 different human cell lines was purchased from Reaction Biology Europe GmbH (Germany). Cells were cultured in different media (Table S1), seeded into a flat-bottom 96-well plate, and incubated at 37 °C. After overnight incubation, test compounds were added with 1% PBS/0.3% Tween 20 and the reference compound bortezomib was added with 0.1% DMSO. Negative controls were solvents alone, and positive control was 10 μM staurosporine. After 72 h of incubation at 37 °C, 5 or 10% CO2 (dependent on the medium), and 1 h equilibration at room temperature, well plates were treated with CellTiter-Glo reagent (Promega) for an hour and luminescence was measured using a luminometer.
(§2) Table S1. In vitro activity against 22 different human cancer cell lines.
(§3) Sr. Cancer Activity (in M)
(§4) no. Cell line type Culture medium
(§5) The effect of investigated compounds on the proliferation of 22 different human cell lines is
(§6) Twenty of these 22 cell lines represent specific cancer types and 2 were non-cancerous. Peptide
(§7) Anticancer drug bortezomib was used as the […]

[2] = system: OVCAR-3; assay: cells; type: cell-based, human; settings: Homo sapiens, OVCAR-3; Ovarian; RPMI-1640 +10% FCS; 72 hours; read-out: Activity (in M), IC50
Description: as §1, §2, §3, §4, §5, §6, §7

[3] = system: HCT-15; assay: cells; type: cell-based, human; settings: Homo sapiens, HCT-15; Colorectal; RPMI-1640 +10% FCS; 72 hours; read-out: Activity (in M), IC50
Description: as §1, §2, §3, §4, §5, §6, §7

[4] = system: MDA MB 435; assay: cells; type: cell-based, human; settings: Homo sapiens, MDA-MB-435; Melanoma; RPMI-1640 +10% FCS; 72 hours; read-out: Activity (in M), IC50
Description: as §1, §2, §3, §4, §5, §6, §7

[5] = system: K562; assay: cells; type: cell-based; settings: Homo sapiens, Leukemia, RPMI-1640 + 10% FCS, 72 hours
Description: as §1, §2, §3, §4, §5, §6, §7

[6] = system: PC3; assay: cells; type: cell-based; settings: Homo sapiens, PC-3; Prostate; DMEM + 10% FCS; 72 hours
Description: as §1, §2, §3, §4, §5, §6, §7

[7] = system: SK-OV3; assay: cells; type: cell-based; settings: Homo sapiens, SK-OV-3; Ovarian; DMEM + 10% FCS; 72 hours
Description: as §1, §2, §3, §4, §5, §6, §7

[8] = system: DU-145; assay: cells; type: cell-based; settings: Homo sapiens, Prostate, DMEM + 10% FCS, 72 hours
Description: as §1, §2, §3, §4, §5, §6, §7

[9] = system: HCT116; assay: cells; type: cell-based; settings: Homo sapiens, HCT-116; Colorectal; DMEM + 10% FCS; 72 hours
Description: as §1, §2, §3, §4, §5, §6, §7

[10] = system: H460; assay: cells; type: cell-based; settings: Homo sapiens, NCI-H460; Lung; DMEM + 10% FCS; 72 hours
Description: as §1, §2, §3, §4, §5, §6, §7

[11] = system: Caki-1; assay: cells; type: cell-based; settings: Homo sapiens, Kidney, DMEM + 10% FCS, 72 hours
Description: as §1, §2, §3, §4, §5, §6, §7

[12] = system: MDA MB 231; assay: cells; type: cell-based; settings: Homo sapiens, Breast, DMEM + 10% FCS, 72 hours
Description: as §1, §2, §3, §4, §5, §6, §7

[13] = system: NHDF; assay: cells; type: cell-based; settings: Homo sapiens; Non-cancerous; Promocell NHDF-Medium C-23010 + Sup. C39315; 72 hours
Description: as §1, §2, §3, §4, §5, §6, §7

[14] = system: U251MG; assay: cells; type: cell-based; settings: Homo sapiens, U-251; Brain; DMEM + 10% FCS; 72 hours
Description: as §1, §2, §3, §4, §5, §6, §7

[15] = system: MOLT-4; assay: cells; type: cell-based; settings: Homo sapiens, Leukemia, DMEM + 10% FCS, 72 hours
Description: as §1, §2, §3, §4, §5, §6, §7

[16] = system: A549; assay: cells; type: cell-based; settings: Homo sapiens, Lung, DMEM + 10% FCS, 72 hours
Description: as §1, §2, §3, §4, §5, §6, §7

[17] = system: MCF-7; assay: cells; type: cell-based; settings: Homo sapiens, MCF7; Breast; DMEM + 10% FCS; 72 hours
Description: as §1, §2, §3, §4, §5, §6, §7

[18] = system: A498; assay: cells; type: cell-based; settings: Homo sapiens, Kidney, DMEM + 10% FCS, 72 hours
Description: as §1, §2, §3, §4, §5, §6, §7

[19] = system: MSC_UC; assay: cells; type: cell-based; settings: Homo sapiens; Non-cancerous; Promocell MSC-Medium C-28010 + Sup. C39810; 72 hours
Description: as §1, §2, §3, §4, §5, §6, §7

[20] = system: HL-60; assay: cells; type: cell-based; settings: Homo sapiens, Leukemia, RPMI-1640 + 10% FCS, 72 hours
Description: as §1, §2, §3, §4, §5, §6, §7

[21] = system: T-47D; assay: cells; type: cell-based; settings: Homo sapiens, T47D; Breast; RPMI-1640 +10% FCS + 0,2U/mL Insulin; 72 hours
Description: as §1, §2, §3, §4, §5, §6, §7

[22] = system: SW620; assay: cells; type: cell-based; settings: Homo sapiens, SW-620; Colorectal; DMEM + 10% FCS; 72 hours
Description: as §1, §2, §3, §4, §5, §6, §7

[23] = system: S. carnosus (CCM 4838T); assay: microbe, parasite or virus in culture; type: cell-based, Staphylococcus carnosus; settings: CCM 4838, 24 h; read-out: Antimicrobial activity (MIC) S. carnosus (CCM 4838T)
Source text: (§8) To test antimicrobial activity, all peptides were initially screened, in a broth microdilution assay, against Gram-negative Escherichia coli (TOP10) and Gram-positive Staphylococcus carnosus (CCM 4838T) Biosafety Level 1 (BSL-1) bacteria (Table 2). […] Four other mutants (LP3, LP26, LP36, and LP39) had higher activity than LP1 against E. coli, and two mutants (LP23 and LP32) had higher activity than LP1 against S. carnosus. Six mutants (LP29, LP30, LP31, LP33, LP40, and LP43) were not active against one or both bacteria, even at the highest concentration tested (50 μM).
(§9) Antimicrobial activity against E. coli TOP10 and S. carnosus CCM 4838T was tested using the broth microdilution assay. Bacteria were cultured in MHA Petri dish for 24 h, subcultured in an MHB test tube for 6 h at 37 °C, and diluted to 10^6 CFU/mL (OD600). […] Dilution series was prepared for concentrations 50 to 0.1 μM in a flat-bottom 96-well plate, inoculated with bacteria, and incubated for 24 h at 37 °C. Growth control wells were free from test compounds, and sterility control wells were free from bacteria. Bacterial MIC was determined as the lowest concentration of test compounds that inhibited visible growth of bacteria (i.e., no visible turbidity).

[24] = Calcein dye leakage assay from LUVs; type: biochemical; settings: P:L 1:100; pH 7.4
Source text: To verify the pore-forming mechanism of action of the designed AMPs, we performed a calcein leakage assay. […] These lipid vesicles were used as simple mimics of bacterial membranes.[58] At the lowest tested peptide-to-lipid (P:L) ratio of 1:100 (mol/mol), three mutants (LP18, LP26, and LP40) caused >90% leakage, which was higher than the leakage caused by LP1 (87%). […] At the same concentration, LP23 caused leakage equivalent to that caused by LP1. Other mutants had lower leakage activity. At a higher P:L ratio of 1:50, all the abovementioned mutants caused 100% leakage, equivalent to that caused by LP1.
Pore-forming activity was tested using a dye leakage assay measuring the leakage of self-quenching fluorescent dye calcein from POPC:POPG (1:1 mol/mol) LUVs. DiD was mixed with lipids (1:500 mol/mol), and lipid film was created by evaporating chloroform, followed by 4 h of desiccation. Dried lipid film was dissolved in calcein buffer (35 mM calcein, 25 mM NaH2PO4·H2O and Na2HPO4·7H2O (3:7 mol/mol), 20 mM NaCl, and 1 mM EDTA). After 10 freeze–thaw cycles, the sample was extruded 50 times through a 100 nm pore size polycarbonate membrane filter. Free calcein in solution was removed using a HiTrap Desalting column. The concentrations of LUVs and peptides were adjusted to 0.02 and 0.1 mM, respectively, in PBS (25 mM NaH2PO4·H2O and Na2HPO4·7H2O (3:7 mol/mol), 100 mM NaCl, and 1 mM EDTA). The investigated P/L ratio was from 1:100 to 1:10 (mol/mol). Fluorescence intensity was measured using a HORIBA Scientific Jobin Yvon FluoroLog-3 Modular Spectrofluorometer (USA). Excitation and emission wavelengths were set to 495 and 520 nm, respectively. Triton X-100 10% caused 100% leakage used for normalization.

[25] = system: E. coli (TOP10); assay: Broth microdilution antimicrobial susceptibility assay; type: cell-based, Escherichia coli; settings: TOP10, 24 h
Source text: as §8, §9

[26] = system: murine macrophages RAW 264.7; settings: 24 h
Description: Cytotoxicity against human immortalized keratinocytes HaCaT, human alveolar basal epithelial A549 (derived from adenocarcinoma), and murine macrophages RAW 264.7 was tested using MTT [3-(4,5-dimethylthiazol-2-yl)-2,5-diphenyltetrazolium bromide] assay. Cells were cultured in Dulbecco’s modified Eagle’s medium (DMEM) containing 4 mM glutamine for HaCaT, or 2 mM glutamine for A549 and RAW 264.7 cells, supplemented with 10% heat-inactivated fetal bovine serum (FBS) and antibiotics (0.1 mg/mL penicillin and streptomycin). Nonessential amino acids (NEAA) and sodium pyruvate (1 mM) were added for macrophages. Cell lines were grown in 25 and 75 cm^2 flasks at 37 °C in a humidified atmosphere with 5% CO2. Cells were suspended in DMEM, containing glutamine, NEAA, and sodium pyruvate (as described above), supplemented with 2% FBS, plated in 96-well plates at 4 × 10^4 cells/well, and incubated at 37 °C in a 5% CO2 atmosphere. After overnight incubation, the medium was replaced with fresh DMEM supplemented with peptides at different concentrations: 2, 4, 8, 16, 32, 64, and 128 μM. Negative controls were cells without peptides. After 24 h of peptide treatment at 37 °C in a 5% CO2 atmosphere, medium was replaced with Hank’s buffer (136 mM NaCl, 0.34 mM Na2HPO4, 0.44 mM KH2PO4, 5.4 mM KCl, 4.1 mM NaHCO3, supplemented with 5.5 mM D-glucose) containing 0.5 mg/mL MTT. Mitochondrial dehydrogenases converted soluble yellow dye MTT to insoluble purple formazan. After 4 h of incubation, acidified isopropanol was added to dissolve formazan crystals and measured for OD570 using Tecan microplate reader Infinite M200 (Salzburg, Austria).

[27] = system: E. coli (E1098); settings: E1098, 18 h

IC50 [1]: 3.2 nM | IC50 [2]: 4 nM | IC50 [3]: 9.8 nM | IC50 [4]: 4.3 nM | IC50 [5]: 9.1 nM | IC50 [6]: 16 nM | IC50 [7]: 19 nM | IC50 [8]: 16 nM | IC50 [9]: 6.9 nM | IC50 [10]: 26 nM | IC50 [11]: 12 nM | IC50 [12]: 12 nM | IC50 [14]: 19 nM | IC50 [15]: 4 nM | IC50 [16]: 25 nM | IC50 [17]: 21 nM | IC50 [18]: 9.1 nM | IC50 [20]: 4.1 nM | IC50 [21]: 8.6 nM | IC50 [22]: 10 nM
Compound: CC(C)C[C@H](NC(=O)[C@H](Cc1ccccc1)NC(=O)c1cnccn1)B(O)O [Bortezomib]
IC50 [13]: 14 nM | IC50 [19]: 4.7 nM

Compound: KKKKLKKILKKLFQFIQQLDQQLQDIKQQK-NH2 [LP35]
MIC [23]: 0.4 µM | Calcein leakage (%) from LUVs at P:L 1:100 (mol/mol) [24]: 63.3 ± 6.7% | MIC [25]: 0.4 µM | IC50 [26]: 36000 nM | MIC [27]: 0.5 µM
